Earlier results on two compounds are cited in patent publication US9795640B2, “Controlling appetite, promoting weight loss, reducing body fat, and/or improving glucose tolerance” (VANDERBILT UNIVERSITY, priority 2011, dated 2017).

Structures are written as SMILES.

For the series the following is noted: intraperitoneal administration; for obesity: animals fed a high-fat diet.

As for `CCCCCCCC/C=C\CCCCCCCC(=O)NCCO` [OEA, N-oleoyl-ethanolamide], the food intake entry is “markedly reduces” and the obesity result is on record as “markedly reduces”.
On to `CCCCCCCCCCCCCCCCCC(=O)NCCO` [SEA, N-stearoyl-ethanolamide], for which the food intake entry is “markedly reduces” and the obesity result is on record as “markedly reduces”.
